The target of assay [1] is T1, Bcl-2-related protein A1 (Mus musculus, UniProt Q07440).
T1 sequence (Q07440 whole entry): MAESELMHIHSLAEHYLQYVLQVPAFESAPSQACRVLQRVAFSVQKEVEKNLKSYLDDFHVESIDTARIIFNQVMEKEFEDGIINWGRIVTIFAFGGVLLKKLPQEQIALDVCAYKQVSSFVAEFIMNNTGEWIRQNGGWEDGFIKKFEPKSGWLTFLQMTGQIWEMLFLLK
In words: Bfl-1 binding inhibitors, SAR follow-up, biochemical, fluorescence polarization (AID 1070). In general terms: Polarisation of emitted light reports the rotation of a fluorescent probe.

The next assay addresses T2, Protein skinhead-1 (Caenorhabditis elegans, UniProt P34707).
T2 sequence (P34707 whole entry): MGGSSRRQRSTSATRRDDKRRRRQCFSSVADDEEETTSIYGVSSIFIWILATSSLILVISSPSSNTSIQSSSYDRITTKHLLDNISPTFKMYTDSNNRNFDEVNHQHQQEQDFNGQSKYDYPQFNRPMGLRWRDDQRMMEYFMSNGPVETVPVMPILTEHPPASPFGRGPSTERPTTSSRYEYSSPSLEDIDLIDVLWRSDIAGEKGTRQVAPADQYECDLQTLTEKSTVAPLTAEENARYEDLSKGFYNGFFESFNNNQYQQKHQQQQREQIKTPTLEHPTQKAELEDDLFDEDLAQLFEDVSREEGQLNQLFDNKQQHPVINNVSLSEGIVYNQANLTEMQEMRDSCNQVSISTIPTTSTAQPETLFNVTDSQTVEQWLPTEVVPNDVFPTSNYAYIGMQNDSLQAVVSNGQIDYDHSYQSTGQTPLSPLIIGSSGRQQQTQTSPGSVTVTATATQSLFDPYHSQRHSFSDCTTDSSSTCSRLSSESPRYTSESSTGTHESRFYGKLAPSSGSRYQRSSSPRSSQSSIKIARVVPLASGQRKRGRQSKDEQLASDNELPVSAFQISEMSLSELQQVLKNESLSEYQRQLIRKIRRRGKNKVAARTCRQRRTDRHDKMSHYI
Type of assay: functional.

Assay [2] addresses T1, Bcl-2-related protein A1. Briefly: small-molecule antagonists of Bfl-1/BH3 interaction – biochemical, TR-FRET, mouse Bfl-1, confirmation (AID 621).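 Note: TR-FRET binding of GST-Bfl-1 to FITC-labelled Bid peptide via terbium antibody.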 Background: TR-FRET usually uses a lanthanide donor and a delayed reading to cut background.
Assay [3] concerns the target T3, Zinc finger protein mex-5 (Caenorhabditis elegans, UniProt Q9XUB2).
T3 sequence (Q9XUB2 whole entry): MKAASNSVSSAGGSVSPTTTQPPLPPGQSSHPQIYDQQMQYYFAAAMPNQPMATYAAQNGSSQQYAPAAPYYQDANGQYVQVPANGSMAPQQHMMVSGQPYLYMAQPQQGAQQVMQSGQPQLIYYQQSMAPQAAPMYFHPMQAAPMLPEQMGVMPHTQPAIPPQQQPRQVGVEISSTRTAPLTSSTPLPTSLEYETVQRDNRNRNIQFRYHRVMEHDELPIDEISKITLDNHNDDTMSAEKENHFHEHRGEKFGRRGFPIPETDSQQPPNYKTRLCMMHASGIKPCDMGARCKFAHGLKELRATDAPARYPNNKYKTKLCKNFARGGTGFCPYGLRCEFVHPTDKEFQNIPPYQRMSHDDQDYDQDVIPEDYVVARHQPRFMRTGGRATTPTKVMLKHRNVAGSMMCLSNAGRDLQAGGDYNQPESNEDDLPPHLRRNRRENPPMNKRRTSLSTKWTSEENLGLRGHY
In words: potency of MEX-5 RNA-binding blockers – biochemical, C. elegans, fluorescence polarization, dose response (AID 1960).

Assay [4] is described as follows: viability loss in HeLa cells – cytotoxicity control for MgcRacGAP inhibitor project, dose response (AID 624300). Type of assay: functional.
Assay [5] is described as follows: HGIII-sPLA2 enzyme inhibition potency – biochemical, QFRET, IC50, dose response (AID 743457).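 Note: green fluorescence rise as the enzyme cleaves BODIPY PC-A2 in liposomes.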
A further assay addresses Nonstructural protein 1 (Influenza A virus, UniProt Q194T2). The assay is classed as functional, Influenza A virus (A/California/07/2009(H1N1)).
A short description of assay [6]: antibacterial activity against E. coli NEB5alpha – luminescence, counter-screen for MEX-5/POS-1 RNA-binding inhibitor project, dose response (AID 1959). Type of assay: functional. (The purpose of a counterscreen is to sort out artefacts and off-target activity.)
The next assay has as its target T4, Leucine aminopeptidase (Plasmodium falciparum 3D7, UniProt Q8IL11).
T4 sequence (Q8IL11 whole entry): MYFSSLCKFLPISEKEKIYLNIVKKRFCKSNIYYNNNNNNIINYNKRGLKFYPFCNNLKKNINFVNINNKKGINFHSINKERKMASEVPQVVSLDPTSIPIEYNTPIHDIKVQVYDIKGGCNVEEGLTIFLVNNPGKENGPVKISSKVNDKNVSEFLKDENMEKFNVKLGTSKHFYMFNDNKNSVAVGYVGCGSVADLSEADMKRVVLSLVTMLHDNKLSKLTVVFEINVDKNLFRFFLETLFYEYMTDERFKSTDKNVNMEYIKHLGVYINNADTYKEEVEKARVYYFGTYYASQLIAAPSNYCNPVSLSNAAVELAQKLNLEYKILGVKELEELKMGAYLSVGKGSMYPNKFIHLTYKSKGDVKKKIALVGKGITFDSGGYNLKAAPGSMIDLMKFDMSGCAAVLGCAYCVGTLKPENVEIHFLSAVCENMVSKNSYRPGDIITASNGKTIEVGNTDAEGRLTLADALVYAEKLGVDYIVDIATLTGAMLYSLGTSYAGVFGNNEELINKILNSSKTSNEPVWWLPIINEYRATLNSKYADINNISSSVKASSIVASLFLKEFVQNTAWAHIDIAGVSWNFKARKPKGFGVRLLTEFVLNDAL
In words: P. falciparum M17LAP inhibitors, primary screen, biochemical, fluorogenic H-Leu-NHMec substrate, 1536-well (AID 1619). The assay is classed as functional.

Assay [7] has as its target T5, Rac GTPase-activating protein 1 (Homo sapiens, UniProt Q9H0H5).
T5 sequence (Q9H0H5 whole entry): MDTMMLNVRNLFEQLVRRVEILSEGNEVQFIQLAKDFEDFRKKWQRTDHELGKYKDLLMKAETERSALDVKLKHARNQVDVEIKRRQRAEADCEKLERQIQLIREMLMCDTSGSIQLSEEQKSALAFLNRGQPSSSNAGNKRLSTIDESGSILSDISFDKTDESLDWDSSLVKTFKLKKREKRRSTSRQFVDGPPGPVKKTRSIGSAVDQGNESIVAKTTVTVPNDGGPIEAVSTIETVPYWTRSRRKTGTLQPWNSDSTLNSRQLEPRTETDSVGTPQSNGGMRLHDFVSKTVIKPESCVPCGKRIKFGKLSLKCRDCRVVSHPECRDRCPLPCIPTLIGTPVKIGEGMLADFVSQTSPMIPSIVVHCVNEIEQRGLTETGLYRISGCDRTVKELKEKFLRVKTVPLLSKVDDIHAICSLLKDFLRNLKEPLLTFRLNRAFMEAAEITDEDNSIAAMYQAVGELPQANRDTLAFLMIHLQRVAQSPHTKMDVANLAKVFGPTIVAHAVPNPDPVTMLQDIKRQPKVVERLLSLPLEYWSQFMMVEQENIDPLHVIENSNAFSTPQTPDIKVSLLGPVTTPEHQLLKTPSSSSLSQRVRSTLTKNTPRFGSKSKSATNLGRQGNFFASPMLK
Briefly: blockers of MgcRacGAP-driven Rac1 GTP hydrolysis – biochemical, ADP Hunter fluorescence, primary and confirmatory, confirmation (AID 624330). The assay is classed as functional.

The target of assay [8] is T6, RNA-binding protein pos-1 (Caenorhabditis elegans, UniProt G5EF15).
T6 sequence (G5EF15 whole entry): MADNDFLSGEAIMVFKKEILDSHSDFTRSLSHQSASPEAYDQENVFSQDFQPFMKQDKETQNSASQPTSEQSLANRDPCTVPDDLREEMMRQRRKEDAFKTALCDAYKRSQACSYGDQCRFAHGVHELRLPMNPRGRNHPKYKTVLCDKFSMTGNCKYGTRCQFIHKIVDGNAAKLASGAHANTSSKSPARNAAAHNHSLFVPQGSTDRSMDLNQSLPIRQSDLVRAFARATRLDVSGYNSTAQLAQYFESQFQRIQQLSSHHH
In words: disruptors of C. elegans POS-1 RNA interaction – biochemical, fluorescence polarization, dose response (AID 1964).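 Note: purified POS-1 fused to maltose binding protein made in E. coli; potency of compounds blocking POS-1 binding to fluorescent RNA.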

Assay [9] deals with Protein-tyrosine kinase 2-beta (Homo sapiens, UniProt Q14289).
Sequence of Protein-tyrosine kinase 2-beta (Q14289 whole entry): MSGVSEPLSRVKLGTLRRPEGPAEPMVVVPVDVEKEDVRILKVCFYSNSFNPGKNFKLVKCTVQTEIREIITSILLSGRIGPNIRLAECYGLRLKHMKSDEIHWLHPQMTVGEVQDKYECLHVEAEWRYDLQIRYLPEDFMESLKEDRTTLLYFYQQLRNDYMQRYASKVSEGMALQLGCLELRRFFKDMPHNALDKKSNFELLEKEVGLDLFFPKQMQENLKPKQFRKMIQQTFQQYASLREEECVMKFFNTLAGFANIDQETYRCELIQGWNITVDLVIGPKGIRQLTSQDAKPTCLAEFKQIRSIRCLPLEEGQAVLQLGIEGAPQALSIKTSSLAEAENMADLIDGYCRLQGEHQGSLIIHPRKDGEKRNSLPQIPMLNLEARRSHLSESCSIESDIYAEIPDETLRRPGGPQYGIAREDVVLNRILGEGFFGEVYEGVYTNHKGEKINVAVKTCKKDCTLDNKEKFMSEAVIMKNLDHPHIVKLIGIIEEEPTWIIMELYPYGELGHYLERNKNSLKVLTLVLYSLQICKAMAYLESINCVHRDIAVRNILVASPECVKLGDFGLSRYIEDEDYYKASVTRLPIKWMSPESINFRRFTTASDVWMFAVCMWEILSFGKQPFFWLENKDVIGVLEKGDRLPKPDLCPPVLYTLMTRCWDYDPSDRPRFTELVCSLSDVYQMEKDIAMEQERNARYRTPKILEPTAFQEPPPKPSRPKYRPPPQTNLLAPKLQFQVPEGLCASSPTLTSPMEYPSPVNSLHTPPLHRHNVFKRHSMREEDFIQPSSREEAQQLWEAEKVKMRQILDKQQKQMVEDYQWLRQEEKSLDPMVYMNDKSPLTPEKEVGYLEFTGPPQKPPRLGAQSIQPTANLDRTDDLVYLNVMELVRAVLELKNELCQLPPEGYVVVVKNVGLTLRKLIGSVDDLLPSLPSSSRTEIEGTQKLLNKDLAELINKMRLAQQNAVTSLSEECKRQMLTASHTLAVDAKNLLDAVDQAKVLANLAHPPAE
A short description of assay [10]: Luminescence Cell-Based Dose Response to Identify Activators of 5'UTR Stem-Loop Driven Prion Protein mRNA Translation in H4-C Neuroglioblastoma Cells. [Related pubchem assays: 1829 (Project Summary), 1814 (Primary HTS)]. Type of assay: functional.
The subject of the next assay is H4. In words: Luminescence Cell-Based Dose Response HTS to Identify Activators of 5'UTR Stem-Loop Driven Prion Protein mRNA Translation in H4 Neuroglioblastoma Cells. [Related pubchem assays: 1829 (Project Summary), 1814 (Primary HTS)]. Type of assay: functional. The settings on record: Homo sapiens.
Assay [11] is described as follows: Luminescence Cell-Based Dose Response to Identify Activators of Luciferase Translation or Activity in H4-C Neuroglioblastoma Cells. [Related pubchem assays: 1829 (Project Summary), 1814 (Primary HTS)]. Type of assay: functional.
Assay [12] in a line: Luminescence Cell-Based Dose Response HTS to Identify Activators of Luciferase Translation or Activity in H4 […] Cells. [Related pubchem assays: 1829 (Project Summary), 1814 (Primary HTS)]. The assay is classed as functional.
A short description of assay [13]: Luminescence Cell-Based Dose Confirmation to Identify Activators of 5'UTR Stem-Loop Driven Alpha-Synuclein mRNA Translation in H4 Neuroglioblastoma Cells. [Related pubchem assays: 1829 (Project Summary), 1814 (Primary HTS)]. Type of assay: functional.
A further assay deals with Estrogen receptor beta (Homo sapiens, UniProt Q92731).
Sequence of Estrogen receptor beta (Q92731 whole entry): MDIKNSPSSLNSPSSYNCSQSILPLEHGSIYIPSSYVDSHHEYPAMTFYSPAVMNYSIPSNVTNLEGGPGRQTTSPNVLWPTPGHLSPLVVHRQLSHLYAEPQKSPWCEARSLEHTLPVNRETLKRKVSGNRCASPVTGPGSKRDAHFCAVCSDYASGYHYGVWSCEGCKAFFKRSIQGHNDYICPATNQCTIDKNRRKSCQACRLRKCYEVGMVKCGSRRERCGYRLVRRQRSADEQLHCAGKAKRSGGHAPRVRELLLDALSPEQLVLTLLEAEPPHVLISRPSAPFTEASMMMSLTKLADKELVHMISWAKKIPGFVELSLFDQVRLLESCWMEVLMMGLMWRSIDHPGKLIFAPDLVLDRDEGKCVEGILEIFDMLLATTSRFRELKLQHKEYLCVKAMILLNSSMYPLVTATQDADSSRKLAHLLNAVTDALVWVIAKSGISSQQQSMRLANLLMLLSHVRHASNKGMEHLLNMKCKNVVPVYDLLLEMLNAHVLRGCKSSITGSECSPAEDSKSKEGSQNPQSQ

The source made the active and inactive calls.

Sequence of Nonstructural protein 1 (Q194T2 whole entry): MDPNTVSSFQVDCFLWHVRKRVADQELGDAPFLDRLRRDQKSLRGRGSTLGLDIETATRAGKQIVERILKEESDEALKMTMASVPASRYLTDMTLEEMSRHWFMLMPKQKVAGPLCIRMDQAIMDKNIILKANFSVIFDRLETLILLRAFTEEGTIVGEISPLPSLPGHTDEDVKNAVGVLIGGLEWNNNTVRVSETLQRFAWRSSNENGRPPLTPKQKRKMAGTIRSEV

By IC50 is commonly meant the midpoint of a concentration-inhibition curve. Consider `Fc1ccc(-n2nnc(-c3cccnc3)n2)cc1`, for which the concentration for half-maximal inhibition (IC50) on Bcl-2-related protein A1 [1] is > 100 µM (not active); on Protein skinhead-1, 17.4 µM (active); against Bcl-2-related protein A1 [2] it was > 100 µM (not active).

As usually defined, the EC50 is the concentration giving half of the maximal effect. As a reminder, the CC50 is the concentration at which the toxic effect on the cells reaches its halfway point. `CC[n+]1c(/C=C/c2ccc(N(C)C)cc2)ccc2ccccc21`: the results for the EC50 in [3], in assay [6] and in [8] were > 300 µM (not active), 37.8 µM (active) and > 300 µM (not active), respectively. The CC50 in assay [4] was 39.7 µM (active). Besides, the IC50 in [5] is 34 µM (inactive); at Nonstructural protein 1 it was 18.9 µM (active); on Leucine aminopeptidase, 110 µM (active); in [7] it was 46.6 µM (active).

`CCc1c(C)nc(SCC(=O)c2cccs2)c(C#N)c1C`: the EC50 is 36.7 µM (inconclusive) in assay [3]; 0.332 µM (active) in assay [10]; 0.149 µM (active) with H4; 0.302 µM (active) in assay [11]; < 0.1 µM (inconclusive) in assay [12]; 0.552 µM (active) in assay [13]. The half-maximal effective concentration (EC50) in assay [8] is 11.5 µM (inconclusive). Besides, the IC50 in [9] is on record as > 69.5 µM (not active); on Estrogen receptor beta it was > 50 µM (not active).

Values taken from ChEMBL document CHEMBL1201862, “PubChem BioAssay data set” (2004).
